In general, DC50 refers to the midpoint of the concentration-degradation curve.

A value given as a limit tells only on which side of the number the result lay.

Consider 22 molecules from patent US11554171B2, “Compounds and methods for the targeted degradation of bromodomain-containing proteins” (Arvinas Operations, Inc., priority 2015, dated 2023).

This experiment relates to c-myc in 22RV-1 cells. In words: Human c-myc ELISA assay. The format is cell-based. To be noted: Homo sapiens; for Emax: 22Rv1, 18 h, read-out: Degradation of BRD4: Maximum inhibition (%) c-Myc ELISA in 22RV1 cells; for DC50: 22Rv1, read-out: Degradation of BRD4: DC50 (uM) c-Myc ELISA in 22RV1 cells. Put shortly: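 c-myc levels measured by ELISA in RIPA lysates of 22RV-1 cells, calibrated with a 333-0 pg/ml standard curve. Lysates came from cells exposed for 18 h to an 8-point, 1:3 dose series starting at 300 nM or 1 μM final in 0.1% DMSO. Suppression potency given as DC50.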
In general terms: ELISA stands for enzyme-linked immunosorbent assay.

Regarding `Cc1ncsc1-c1ccc([C@H](C)NC(=O)[C@@H]2C[C@@H](O)CN2C(=O)[C@@H](C(C)C)n2cc(-c3ccnc(O[C@H]4C[C@H](NC(=O)C[C@@H]5N=C(c6ccc(Cl)cc6)c6c(sc(C)c6C)-n6c(C)nnc65)C4)c3)cn2)cc1` [Example 220], the Emax stood at 66.4% and the DC50 was 0.1 to 1 µM.
The like results for `Cc1ncsc1-c1ccc([C@H](C)NC(=O)[C@@H]2C[C@@H](O)CN2C(=O)[C@@H](NC(=O)c2ccc(OCCCCNC(=O)C[C@@H]3N=C(c4ccc(Cl)cc4)c4c(sc(C)c4C)-n4c(C)nnc43)cn2)C(C)(C)C)cc1` [Example 115] were, in that order, 100% and less than 0.01 µM.
Consider `Cc1ncsc1-c1ccc([C@H](C)NC(=O)[C@@H]2C[C@@H](O)CN2C(=O)[C@@H](NC(=O)CCc2cc(F)cc(OC(C)CNC(=O)C[C@@H]3N=C(c4ccc(Cl)cc4)c4c(sc(C)c4C)-n4c(C)nnc43)c2)C(C)(C)C)cc1` (some centres unmarked) [Example 156], for which the Emax turned out to be 96.5% and the DC50 is less than 0.01 µM.
For `Cc1ncsc1-c1ccc([C@H](C)NC(=O)[C@@H]2C[C@@H](O)CN2C(=O)[C@@H](NC(=O)CN2C[C@@H](C)N(C3CC4(C3)CN(C(=O)C[C@@H]3N=C(c5ccc(Cl)cc5)c5c(sc(C)c5C)-n5c(C)nnc53)C4)C[C@@H]2C)C(C)(C)C)cc1` [Example 357, (2S,4R)-1-[(2S)-2-{2-[(2S,5R)-4-(2-{2-[(9S)-7-(4-chlorophenyl)-4,5,13-trimethyl-3-thia-1,8,11,12-tetraazatricyclo[8.3.0.0^2,^6]trideca-2(6),4,7,10,12-pentaen-9-yl]acetyl}-2-azaspiro[3.3]heptan-6-yl)-2,5-dimethylpiperazin-1-yl]acetamido}-3,3-dimethylbutanoyl}-4-hydroxy-N-[(1S)-1-[4-(4-methyl-1,3-thiazol-5-yl)phenyl]ethyl]pyrrolidine-2-carboxamide] the same measures were 100% and 0.01 to 0.1 µM.
The like results for `Cc1ncsc1-c1ccc([C@@H](CO)NC(=O)[C@@H]2C[C@@H](O)CN2C(=O)[C@@H](NC(=O)CN2CCC(O[C@H]3C[C@H](NC(=O)C[C@@H]4N=C(c5ccc(Cl)cc5)c5c(sc(C)c5C)-n5c(C)nnc54)C3)CC2)C(C)(C)C)cc1` [Example 352, (2S,4R)-1-[(2S)-3,3-dimethyl-2-(2-{4-[(1,3-trans)-3-{2-[(9S)-7-(4-chlorophenyl)-4,5,13-trimethyl-3-thia-1,8,11,12-tetraazatricyclo[8.3.0.0^2,^6]trideca-2(6),4,7,10,12-pentaen-9-yl]acetamido}cyclobutoxy]piperidin-1-yl}acetamido)butanoyl]-4-hydroxy-N-[(1S)-2-hydroxy-1-[4-(4-methyl-1,3-thiazol-5-yl)phenyl]ethyl]pyrrolidine-2-carboxamide] were, in that order, less than 20% and greater than 1 µM.
For `Cc1ncsc1-c1ccc(CNC(=O)[C@@H]2C[C@@H](O)CN2C(=O)[C@@H](NC(=O)COCCCCCCNC(=O)C[C@@H]2N=C(c3ccc(Cl)cc3)c3c(sc(C)c3C)-n3c(C)nnc32)C(C)(C)C)cc1` [Example 82] the same measures were 100% and 0.01 to 0.1 µM.
`Cc1ncsc1-c1ccc([C@H](C)NC(=O)[C@@H]2C[C@@H](O)CN2C(=O)[C@@H](C(C)C)n2cc(-c3ccc(N4CCN(C(=O)C[C@@H]5N=C(c6ccc(Cl)cc6)c6c(sc(C)c6C)-n6c(C)nnc65)CC4)nc3)cn2)cc1` [Example 321]: the Emax amounted to 56% and the DC50 fell in the range of 0.1 to 1 µM.
On to `Cc1ncsc1-c1ccc(CNC(=O)[C@@H]2C[C@@H](O)CN2C(=O)[C@@H](NC(=O)COCCN2CCN(c3ccc(CNC(=O)C[C@@H]4N=C(c5ccc(Cl)cc5)c5c(sc(C)c5C)-n5c(C)nnc54)cc3)CC2)C(C)(C)C)cc1` [Example 60], for which the Emax came out at 91% and the 50% degradation concentration (DC50) is 0.1 to 1 µM.
The like results for `Cc1ncsc1-c1ccc([C@H](C)NC(=O)[C@@H]2C[C@@H](O)CN2C(=O)[C@@H](NC(=O)c2ccc(OCCCNC(=O)C[C@@H]3N=C(c4ccc(Cl)cc4)c4c(sc(C)c4C)-n4c(C)nnc43)cn2)C(C)(C)C)cc1` [Example 114, 5-(3-{2-[(9S)-7-(4-chlorophenyl)-4,5,13-trimethyl-3-thia-1,8,11,12-tetraazatricyclo[8.3.0.0^2,^6]trideca-2(6),4,7,10,12-pentaen-9-yl]acetamido}propoxy)-N-[(2S)-1-[(2S,4R)-4-hydroxy-2-{[(1S)-1-[4-(4-methyl-1,3-thiazol-5-yl)phenyl]ethyl]carbamoyl}pyrrolidin-1-yl]-3,3-dimethyl-1-oxobutan-2-yl]pyridine-2-carboxamide] were, in that order, 99.5% and less than 0.01 µM.
For `Cc1ncoc1-c1ccc([C@H](C)NC(=O)[C@@H]2C[C@@H](O)CN2C(=O)[C@@H](NC(=O)Cc2ccc(O[C@H]3C[C@H](NC(=O)C[C@@H]4N=C(c5ccc(Cl)cc5)c5c(sc(C)c5C)-n5c(C)nnc54)C3)cc2)C(C)(C)C)cc1` [Example 274] the same measures were 95.4% and less than 0.01 µM.
For `Cc1ncsc1-c1ccc(CNC(=O)[C@@H]2C[C@@H](O)CN2C(=O)[C@@H](NC(=O)COCCN2CCC(NC(=O)C[C@@H]3N=C(c4ccc(Cl)cc4)c4c(sc(C)c4C)-n4c(C)nnc43)CC2)C(C)(C)C)cc1` [Example 79] the same measures were 50.8% and greater than 1 µM.
As to `Cc1ncoc1-c1ccc(CNC(=O)[C@@H]2C[C@@H](O)CN2C(=O)[C@@H](NC(=O)COCCOCCCOc2ccc([C@@H](C)NC(=O)C[C@@H]3N=C(c4ccc(Cl)cc4)c4c(sc(C)c4C)-n4c(C)nnc43)cc2)C(C)(C)C)cc1` [Example 31], the Emax amounted to 65% and the DC50 lay within 0.1 to 1 µM.
`Cc1ncsc1-c1ccc([C@H](C)NC(=O)[C@@H]2C[C@@H](O)CN2C(=O)[C@@H](n2cc(-c3ccnc(O[C@H]4C[C@@H](NC(=O)C[C@@H]5N=C(c6ccc(Cl)cc6)c6c(sc(C)c6C)-n6c(C)nnc65)C4)c3)cn2)C(C)(C)C)cc1` [Example 240]: the Emax was 97% and the DC50 was less than 0.01 µM.
For the molecule `Cc1ncsc1-c1ccc([C@H](C)NC(=O)[C@@H]2C[C@@H](O)CN2C(=O)[C@@H](NC(=O)c2cc3ccc(OCCNC(=O)C[C@@H]4N=C(c5ccc(Cl)cc5)c5c(sc(C)c5C)-n5c(C)nnc54)cc3o2)C(C)(C)C)cc1` [Example 210, (2S,4R)-1-[(2S)-2-{[6-(2-{2-[(9S)-7-(4-chlorophenyl)-4,5,13-trimethyl-3-thia-1,8,11,12-tetraazatricyclo[8.3.0.0^2,^6]trideca-2(6),4,7,10,12-pentaen-9-yl]acetamido}ethoxy)-1-benzofuran-2-yl]formamido}-3,3-dimethylbutanoyl]-4-hydroxy-N-[(1S)-1-[4-(4-methyl-1,3-thiazol-5-yl)phenyl]ethyl]pyrrolidine-2-carboxamide], the Emax amounted to 100% and the DC50 was less than 0.01 µM.
The like results for `Cc1ncoc1-c1ccc([C@H](C)NC(=O)[C@@H]2C[C@@H](O)CN2C(=O)[C@@H](C(C)C)n2cc(-c3cccc(O[C@H]4C[C@@H](NC(=O)C[C@@H]5N=C(c6ccc(Cl)cc6)c6c(sc(C)c6C)-n6c(C)nnc65)C4)c3)cn2)cc1` [Example 285] were, in that order, 44.4% and greater than 1 µM.
For `Cc1ncsc1-c1ccc(CNC(=O)[C@@H]2C[C@@H](O)CN2C(=O)[C@@H](NC(=O)c2ccn(CCOCCNC(=O)C[C@@H]3N=C(c4ccc(Cl)cc4)c4c(sc(C)c4C)-n4c(C)nnc43)n2)C(C)(C)C)cc1` [Example 91] the same measures were less than 5% and greater than 1 µM.
For `Cc1ncsc1-c1ccc(CNC(=O)[C@@H]2C[C@@H](O)CN2C(=O)[C@@H](NC(=O)COCCCOCCCOc2ccc(NC(=O)C[C@@H]3N=C(c4ccc(Br)cc4)c4c(sc(C)c4C)-n4c(C)nnc43)cc2)C(C)(C)C)cc1` [Example 62] the same measures were 98.5% and 0.01 to 0.1 µM.
For `Cc1ncsc1-c1ccc(CNC(=O)[C@@H]2C[C@@H](O)CN2C(=O)[C@@H](NC(=O)COCCCOCCCCCNC(=O)C[C@@H]2N=C(c3ccc(Cl)cc3)c3c(sc(C)c3C)-n3c(C)nnc32)C(C)(C)C)cc1` [Example 50, (2S,4R)-1-[(2S)-2-(2-{3-[(5-{2-[(9S)-7-(4-chlorophenyl)-4,5,13-trimethyl-3-thia-1,8,11,12-tetraazatricyclo[8.3.0.0^2,^6]trideca-2(6),4,7, 10,12-pentaen-9-yl]acetamido}pentyl)oxy]propoxy}acetamido)-3,3-dimethylbutanoyl]-4-hydroxy-N-{[4-(4-methyl-1,3-thiazol-5-yl)phenyl]methyl}pyrrolidine-2-carboxamide], the Emax amounted to 98% and the DC50 was less than 0.01 µM.
In the case of `Cc1ncsc1-c1ccc([C@H](C)NC(=O)[C@@H]2C[C@@H](O)CN2C(=O)[C@H](C(C)C)n2cc(-c3cc(F)cc(O[C@H]4C[C@@H](NC(=O)C[C@@H]5N=C(c6ccc(Cl)cc6)c6c(sc(C)c6C)-n6c(C)nnc65)C4)c3)cn2)cc1` [Example 252], the Emax was found to be 97.5% and the DC50 is less than 0.01 µM.
As for `Cc1ncsc1-c1ccc([C@H](C)NC(=O)[C@@H]2C[C@@H](O)CN2C(=O)[C@@H](NC(=O)Cc2cccc(O[C@H]3C[C@@H](NC(=O)C[C@@H]4N=C(c5ccc(Cl)cc5)c5c(sc(C)c5C)-n5c(C)nnc54)C3)c2)C(C)(C)C)cc1` [Example 204], the Emax stood at 88% and the DC50 fell in the range of 0.01 to 0.1 µM.
For `Cc1cc(C(C(=O)N2C[C@H](O)C[C@H]2C(=O)NCc2ccc(Cl)cc2OCCOCCOCCOCCNC(=O)C[C@@H]2N=C(c3ccc(Cl)cc3)c3c(sc(C)c3C)-n3c(C)nnc32)C(C)C)on1` (some centres unmarked) [Example 361] the same measures were 100% and 0.01 to 0.1 µM.
The like results for `Cc1ncsc1-c1ccc(CNC(=O)[C@@H]2C[C@@H](O)CN2C(=O)[C@@H](NC(=O)COCCOCCOCCOc2ccc(NC(=O)C[C@@H]3N=C(c4ccc(Cl)cc4)c4c(sc(C)c4C)-n4c(C)nnc43)cc2)C(C)(C)C)cc1` [Example 11] were, in that order, 99.5% and 0.01 to 0.1 µM.
